Measurements: patent US20040102361A1, “Pharmaceutical composition for the treatment of pulmonary arterial hypertension” (priority 2002, published 2004)
Where a name gives a salt, the structure may show the parent alone.

Columns and labels:
[1] = test system: patients with severe pulmonary arterial hypertension; assay: Clinical trial AC-052-355: hemodynamic efficacy, change from baseline to week 16; format: in vivo; details: change from baseline at week 16
Protocol: (§1) This was a double-blind, randomized, placebo-controlled study to assess the effects of bosentan on hemodynamics, safety and tolerability in patients with severe pulmonary arterial hypertension when combined with the initiation of epoprostenol therapy.
(§2) Study design: The duration of the study was 16 weeks, 2:1 bosentan:placebo randomization. All patients received the starting epoprostenol dose of 2 ng/kg/min for 2 days, then they were randomized to receive either bosentan or placebo. Every 2 weeks thereafter, epoprostenol was increased by 2 ng/kg/min up to the target dose of 14±2 ng/kg/min by week 16. All patients received epoprostenol together with either bosentan or placebo for 16 weeks. Hemodynamic assessments were performed at baseline (prior to start of therapy) and again after 16 weeks of therapy. Safety monitoring was performed throughout the study duration.
Primary endpoint: Percent change from baseline in total pulmonary resistance (TPR) to week 16. The sample size was estimated for an expected mean difference in TPR of 28%.
(§3) Secondary endpoints: Changes from baseline to week 16 in CI (Cardiac Index), PVR (Pulmonary Vascular Resistance), […] (mean pulmonary arterial pressure), and mRAP (mean right atrial pressure); changes from baseline to week 16 in walk distance (6-min walk test), dyspnea fatigue rating, WHO functional class; and safety and tolerability.
(§4) Thirty-three patients entered the study: 11 patients received epoprostenol alone, while 22 patients received bosentan with epoprostenol.
In Table 1 the results are expressed as changes from baseline at week 16. Mean±SD (standard deviation) and median change (in brackets).

[2] = test system: patients with severe pulmonary arterial hypertension; assay: Clinical trial AC-052-355: vital signs (systolic blood pressure, heart rate), change from baseline to week 16; details: human, in vivo
Protocol: as §1, §2, §3, §4

[3] = test system: patients with severe pulmonary arterial hypertension; assay: Clinical trial AC-052-355: treatment emergent adverse events; format: in vivo; details: 16 weeks
Protocol: as §1, §2, §3, §4

CCCCC[C@H](O)/C=C/[C@@H]1[C@H]2C/C(=C/CCCC(=O)O)O[C@H]2C[C@H]1O [Epoprostenol alone, (5Z, 9α, 111α, 13E, 15)-6,9-epoxy-11,15-dihydroxyprosta-5,13-dien-1-oic acid, sodium salt]
CI, % mean change ([1]; cardiac index, mean (SD in the next cell)): 37.9%
CI, absolute change ([1]; mean (SD in the next cell)): 0.57 L/min/m^2
TPR, absolute change ([1]; mean (SD in the next cell)): −386 dyn*sec/cm^5
mPAP, absolute change ([1]; mean (SD in the next cell)): −1.6 mmHg
CI, % median change ([1]; median (in brackets)): (30.0%)
TPR, % median change ([1]; median (in brackets)): (−14.3%)
mRAP, absolute change ([1]; mean right atrial pressure, mean (SD in the next cell)): 0.3 mmHg
TPR, % mean change ([1]; total pulmonary resistance, mean (SD in the next cell)): −22.6%
Heart Rate (bpm), median change from baseline to week 16 [2]: 7.0 bpm
Systolic blood pressure (mmHg), change from baseline to week 16 [2]: −9.8 ± 10.9%
FLUSHING, % ([3]; human, in vivo): 45.5%
FLUSHING, No. ([3]; human, in vivo): 5
HYPOTENSION, % ([3]; human, in vivo): 18.2%
HYPOTENSION, No. ([3]; human, in vivo): 2
PAIN IN JAW, % ([3]; human, in vivo): 90.9%
PAIN IN JAW, No. ([3]; human, in vivo): 10
HEADACHE, No. ([3]; number of patients with the adverse event, 11 patients epoprostenol alone, 22 bosentan with epoprostenol): 4
HEADACHE, % ([3]; percent of patients with the adverse event): 36.4%
